Results from patent US20030013640A1, “Integrin linked kinase modulation of leukocyte trafficking” (priority 2001, published 2003).

Assays:
neutrophils (PMN) [1] = details: mouse, in vivo; cited from earlier work
monocytes [2] = assay: Zymosan-induced monocyte accumulation in peritoneal cavity (24 h); format: in vivo; details: Mus musculus, sc, given 2 h prior to zymosan, 24 h time-point
Protocol: (§1) Zymosan (an insoluble inflammogen derived from the yeast wall, Ajuebor et al. (1998) J. Leukoc. Biol. 63, 108-116) is injected i.p. in mice, control animals receive only sterile saline. Cellular influx into the peritoneal cavities is evaluated either at the 4 h time-point (for PMN) or at 24 h (for monocytes), by killing animals by CO2 exposure, and washing the cavities with 3 ml of sterile PBS supplemented with 3 mM EDTA and 25 U/ml heparin. Cells in the lavage fluids are stained in Turk's solution and differential counting is performed with a light microscope.
Monocyte accumulation at the 24 h time-point is in the order of 10-14 million cells per animal. The effect of known drugs on this parameter have not been well investigated, however it is sensitive to anti-chemokine therapy (i.e. antibodies to MCP-1) and to dexamethasone. The latter is the positive control with an approximate ED50 of 0.9 mg/kg s.c. (given 2 h prior to zymosan). The effects of ILK inhibitors are determined in groups pre-treated with various concentrations of ILK inhibitors, usually in systemic administration doses in the range of 10-300 mg/kg, and usually administered every 1-4 hours prior to the cytokine, and up to the 2 hours after (timing dependent on pharmacokinetics of specific ILK inhibitor).

neutrophils (PMN) [3] = assay: IL-1β-induced neutrophil accumulation in mouse dorsal air-pouch; format: in vivo; details: sc, given 2 h prior, 4 h, read-out: ED50 for inhibition of IL-1β-induced PMN migration
Protocol: Acute accumulation of neutrophils (PMN) into a specific tissue site is a hallmark of the inflammatory response, and can be reproduced in vivo in the mouse following IL-1β injection into a preformed s.c. dorsal air-pouch. This model has the advantage of a quick (maximal at 4 h) and intense (between 5 and 8 million PMN per animal) response (Perretti & Flower (1993) J. Immunol. 150:992-999).
Six-day-old air-pouches are formed on the back of mice by injection of 2.5 ml of air on day 0 and day 3. On day 6, 5 ng of murine recombinant IL-1β is injected into the air-pouch, or vehicle only, i.e. 0.5% carboxymethylcellulose in PBS. Cellular influx into the air-pouches is evaluated at the 4 h time-point, by killing animals by CO2 exposure, and washing the cavities with 2 ml of sterile PBS supplemented with 3 mM EDTA and 25 U/ml heparin. Cells in the lavage fluids are stained in Turk's solution and differential counting is done with a light microscope.
This model is not sensitive to indomethacin and BWA4C, but is sensitive to PAF antagonists, anti-adhesion molecule reagents, tachykinin NK1 antagonists, etc. The effects of ILK inhibitors are determined in groups pre-treated with various concentrations of ILK inhibitors in systemic administration doses in the range of 10-300 mg/kg, administered every 1-4 hours prior to the cytokine, and up to the time of euthanasia.

[4] = system: leukocyte-endothelium interaction; assay: Intravital microscopy of IL-1β-inflamed mouse mesenteric vascular bed; format: in vivo; details: 0.5 mg/kg s.c. 1 hour prior to IL-1β
Protocol: Mice are injected i.p. with 20 ng mouse recombinant IL-1β and left at liberty until the beginning of the experiment. Control animals receive sterile saline alone (1 ml per rat i.p.). Animals are anaesthetised with Inactin™, shaved on the neck and abdominal areas, and a tracheotomy is performed to facilitate breathing during the experimentation. Cautery incisions are made along the abdominal line, the mesentery is exposed and placed on a viewing plexiglass stage.
The preparation is mounted on a Zeiss Axioskop and is then transilluminated with a 12-V, 100-W halogen light source. […] A video time-date generator projects the time, date and stopwatch function onto the monitor.
Particular care is taken to assure observation of the mesenteric vascular bed exactly 2 h after injection of the cytokine. Mesenteries are superfused with thermostated (37° C.) bicarbonate-buffered solution (pH=7.4, gassed with 5% CO2/95% N2) at a rate of 2 ml/min. Three to five randomly selected post-capillary venules (diameter between 20-40 μm; length of at least 100 μm) are observed for each rat. Off-line analysis is performed to quantify the extent of cell adhesion (the number of adherent leukocytes in 100 μm length vessel wall), and leukocyte emigration (the number of cells that had emigrated out of the vessel up to 50 μm, 50 to 100 μm and 100-150 μm away from the vessel wall in parallel with 100 μm vessel segments).
IL-1β produces an intense response (>20 adherent cells per 100 μm length) that is modulated in part by endogenous PAF, ICAM-1 and the chemokine CINC. Therefore, agents that interfere with these mediators are identified using this technique. The effects of ILK inhibitors are determined in groups pre-treated with various concentrations of ILK inhibitors, in systemic administration doses in the range of 10-300 mg/kg, and administered every 1-4 hours prior to the cytokine, and up to the 2 hours after (timing dependent on pharmacokinetics of specific ILK inhibitor). Pre-treatment with ILK inhibitors is expected to result in a significant decrease in the number of leucocytes that are recruited.
Mouse mesenteric vascular bed was inflamed with interleukin-1β. The anti-inflammatory properties of KP-401-A (an ILK inhibitor) were compared to dexamethasone (positive control) as determined by intravital microscopy. […]
Cell rolling was measured by white blood cell velocity. Cell adhesion was quantified by counting, for each vessel, the number of adherent neutrophils in a 100 μm length. Leukocyte emigration from the microcirculation into the tissue was quantified by counting the number of cells that had emigrated up to 50 μm away from the wall of the 100 μm vessel segments. […]

monocytes [5] = assay: MCP-1-induced monocyte accumulation in peritoneal cavity; format: in vivo; details: sc, 0.1 mg/kg per mouse s.c. 1 h prior to MCP-1
Protocol: Monocyte chemoattractant protein-1 (MCP-1) given i.p. (1 μg) induces a selective accumulation of monocytes which is maximal at the 6 h post-injection (between 1-3 million monocytes per mouse), above the mild effect of the vehicle (0.25 ml of sterile saline) alone. After MCP-1 injection, animals are killed by CO2 exposure, and cavities washed with 3 ml of sterile PBS supplemented with 3 mM EDTA. Cells in the lavage fluids are stained in Turk's solution and differential counting is performed using a light microscope by a scientist unaware of the experimental groups. Monocyte influx is also confirmed by staining with F4/80 and FACS analysis. The effects of ILK inhibitors are determined in groups pre-treated with various concentrations of ILK inhibitor in systemic administration doses in the range of 10-300 mg/kg, administered every 1-4 hours prior to the cytokine, and up to the time of euthanasia (timing dependent on pharmacokinetics of specific ILK inhibitor). […] The positive control is dexamethasone which produces approximately 50% inhibition at the dose of 0.1 mg/kg per mouse given s.c. 1 h prior to MCP-1.

neutrophils (PMN) [6] = assay: Zymosan-induced PMN accumulation in mouse peritoneal cavity; format: in vivo
Protocol: as §1
PMN influx ranges between 15-20 million cells per mouse, and is sensitive to anti-chemokine (i.e. antibodies to MCP-1) and anti-adhesion reagents (i.e. antibody to CD11b) as well as to more classical anti-inflammatory drugs, e.g. PAF antagonists; indomethacin, 5-lipoxygenase inhibitors, etc. The positive control is dexamethasone, which reduces zymosan-induced PMN influx with an approximate ED50 of 0.9 mg/kg s.c. (given 2 h prior to zymosan). The effects of ILK inhibitors are determined in groups pre-treated with various concentrations of ILK inhibitors, usually in systemic administration doses in the range of 10-300 mg/kg, and usually administered every 1-4 hours prior to the cytokine, and up to the time of euthanasia, (dependent on pharmacokinetics of specific ILK inhibitor).

neutrophils (PMN) [7] = details: classical anti-inflammatory drugs; cited from earlier work

SMILES | sensitivity of IL-1β air-pouch model to the drug (neutrophils (PMN) [1]) | ED50 (monocytes [2]) | ED50 (neutrophils (PMN) [3]) | Adherent Cells (no. 100 μm) ([4]; 2 hours after IL-1β) | Emigrated Cells (no. 50 × 100 μm^2) ([4]; 2 hours after IL-1β) | Cell Flux (no. per min) ([4]; observed 2 hours after IL-1β) | Cell Rolling (VWBC) ([4]; white blood cell velocity, 2 hours after IL-1β) | inhibition at 0.1 mg/kg (monocytes [5]) | ED50 (neutrophils (PMN) [6]; Mus musculus, Neutrophil, sc, given 2 h prior to zymosan, 4 h time-point, read-out: ED50 for reduction of zymosan-induced PMN influx) | PMN Accumulation (× 10^6 cells) ± SE (neutrophils (PMN) [6]; dose 1.5 mg/kg s.c., 60 min prior to and 60 min following i.p. Zymosan 1 mg/mouse, measured 4 h later, mean ± SE, n = 5) | sensitivity of zymosan-induced PMN influx to the drug (neutrophils (PMN) [7])
CC(=O)N(O)C/C=C/c1cccc(Oc2ccccc2)c1 [BWA4C] | not sensitive |  |  |  |  |  |  |  |  |  | 
C[C@@H]1C[C@H]2[C@@H]3CCC4=CC(=O)C=C[C@]4(C)[C@@]3(F)[C@@H](O)C[C@]2(C)[C@@]1(O)C(=O)CO [dexamethasone] |  | ~0.9 mg/kg | ~0.15 mg/kg | 1.4 ± 0.1 no. 100 μm | 1.8 ± 0.3 no. 50 × 100 μm^2 | 7.0 ± 1.5 no. per min | 17 ± 2.5 | ~50% | ~0.9 mg/kg | 4.0 ± 0.79 × 10^6 cells | 
COc1ccc2c(c1)c(CC(=O)O)c(C)n2C(=O)c1ccc(Cl)cc1 [indomethacin] | not sensitive |  |  |  |  |  |  |  |  |  | sensitive
